Where two headings read alike, the source gives them in different places.
Tests used:
HeLa [1] = test: cells; design: MTT antiproliferative assay, absorbance at 545 nm, inhibition versus untreated control; details: Homo sapiens; for inhibition at 10 µM / inhibition at 30 µM: read-out: Growth inhibition (%) HeLa
Method: (§1) The antiproliferative capacities of the prepared compounds were determined by employing the MTT assay against a panel of human adherent cancer cell lines isolated from breast (MCF-7 and MDA-MB-231) or cervical (HeLa and SiHa) tumors. All compounds were tested at two concentrations (10 and 30 μM). When >50% of antiproliferative capacity was obtained at 10 μM, the assays were repeated with a broader concentration range (0.1–30 μM), and IC50 values were calculated (Figure 2, Supplementary Table S1, Supplementary Figure S1). […] MTT assays were performed against the non-cancerous fibroblast cell line NIH/3T3 to obtain preliminary data on cancer selectivity of 16AABE and 16BABE. […] The ratios of IC50 values obtained against cancer cells and fibroblasts were in the range of 0.2 and 0.5, indicating substantial cancer selectivity of these two compounds (Table 1). Cancer cells were seeded onto a 96-well microplate for the proliferation assay at a density of 5000 cells/well. After 24 h of incubation, 200 μL of new medium containing the test compounds at 10 or 30 µM concentrations was added. Absorbance of the reduced MTT solution was measured at 545 nm using a microplate reader, with untreated cells serving as the negative control. In the case of active compounds (i.e., >50% cell growth inhibition at 10 μM), the assay was repeated with a series of dilutions, and sigmoidal dose–response curves were fitted to the obtained data. The IC50 values, representing the concentration at which cell proliferation was reduced by 50% compared with the untreated control, were calculated using GraphPad Prism 5 (GraphPad Software, San Diego, CA, USA). Each in vitro experiment was conducted on two microplates with a minimum of five parallel wells. […] Cisplatin was used as a reference agent.

MCF-7 [2] = test: cells; design: MTT antiproliferative assay, absorbance at 545 nm, inhibition versus untreated control; details: Homo sapiens, MCF7; for inhibition at 10 µM / inhibition at 30 µM: read-out: Growth inhibition (%) MCF-7
Method: as §1

MDA-MB-231 [3] = test: cells; design: MTT antiproliferative assay, absorbance at 545 nm, inhibition versus untreated control; details: Homo sapiens; for inhibition at 10 µM / inhibition at 30 µM: read-out: Growth inhibition (%) MDA-MB-231
Method: as §1

SiHa [4] = test: cells; design: MTT antiproliferative assay, absorbance at 545 nm, inhibition versus untreated control; details: Homo sapiens; for inhibition at 10 µM / inhibition at 30 µM: read-out: Growth inhibition (%) SiHa
Method: as §1

in vitro = test: in vitro; design: MTT assay on non-cancerous NIH/3T3 fibroblasts, absorbance at 545 nm, selectivity counter-screen; details: mouse, nih/3t3 cells; read-out: IC50 NIH/3T3
Method: The antiproliferative capacities of the prepared compounds were determined by employing the MTT assay against a panel of human adherent cancer cell lines isolated from breast (MCF-7 and MDA-MB-231) or cervical (HeLa and SiHa) tumors. All compounds were tested at two concentrations (10 and 30 μM). When >50% of antiproliferative capacity was obtained at 10 μM, the assays were repeated with a broader concentration range (0.1–30 μM), and IC50 values were calculated (Figure 2, Supplementary Table S1, Supplementary Figure S1). […] MTT assays were performed against the non-cancerous fibroblast cell line NIH/3T3 to obtain preliminary data on cancer selectivity of 16AABE and 16BABE. […] The ratios of IC50 values obtained against cancer cells and fibroblasts were in the range of 0.2 and 0.5, indicating substantial cancer selectivity of these two compounds (Table 1). The antiproliferative activity of the presented compounds were evaluated against a panel of human gynecological cancer cell lines. MCF-7 and MDA-MB-231 cell lines were derived from breast cancers, while HeLa and SiHa cell lines originated from cervical cancers of different pathological backgrounds. […] Absorbance of the reduced MTT solution was measured at 545 nm using a microplate reader, with untreated cells serving as the negative control. […]

HeLa [5] = test: cells; design: MTT assay, growth inhibition of cells relative to untreated control; details: Homo sapiens, HeLa; for inhibition at 10 µM: read-out: Growth inhibition (%) at 10 uM; for inhibition at 30 µM: read-out: Growth inhibition (%) at 30 uM
Method: (§2) Cancer cells were seeded onto a 96-well microplate for the proliferation assay at a density of 5000 cells/well. After 24 h of incubation, 200 μL of new medium containing the test compounds at 10 or 30 µM concentrations was added. Absorbance of the reduced MTT solution was measured at 545 nm using a microplate reader, with untreated cells serving as the negative control. In the case of active compounds (i.e., >50% cell growth inhibition at 10 μM), the assay was repeated with a series of dilutions, and sigmoidal dose–response curves were fitted to the obtained data. The IC50 values, representing the concentration at which cell proliferation was reduced by 50% compared with the untreated control, were calculated using GraphPad Prism 5 (GraphPad Software, San Diego, CA, USA). Each in vitro experiment was conducted on two microplates with a minimum of five parallel wells. […] Cisplatin was used as a reference agent. The antiproliferative capacities of the prepared compounds were determined by employing the MTT assay against a panel of human adherent cancer cell lines isolated from breast (MCF-7 and MDA-MB-231) or cervical (HeLa and SiHa) tumors. All compounds were tested at two concentrations (10 and 30 μM). When >50% of antiproliferative capacity was obtained at 10 μM, the assays were repeated with a broader concentration range (0.1–30 μM), and IC50 values were calculated (Figure 2, Supplementary Table S1, Supplementary Figure S1). […] MTT assays were performed against the non-cancerous fibroblast cell line NIH/3T3 to obtain preliminary data on cancer selectivity of 16AABE and 16BABE. […] The ratios of IC50 values obtained against cancer cells and fibroblasts were in the range of 0.2 and 0.5, indicating substantial cancer selectivity of these two compounds (Table 1).

MCF-7 [6] = test: cells; design: MTT assay, growth inhibition of cells relative to untreated control; details: Homo sapiens, MCF7; for inhibition at 10 µM: read-out: Growth inhibition (%) at 10 uM; for inhibition at 30 µM: read-out: Growth inhibition (%) at 30 uM
Method: as §2

MDA-MB-231 [7] = test: cells; design: MTT assay, growth inhibition of cells relative to untreated control; details: Homo sapiens, MDA-MB-231; for inhibition at 10 µM: read-out: Growth inhibition (%) at 10 uM; for inhibition at 30 µM: read-out: Growth inhibition (%) at 30 uM
Method: as §2

NIH/3T3 = test: cells; design: MTT assay, growth inhibition of cells relative to untreated control; details: Mus musculus, NIH3T3; read-out: Growth inhibition (%) at 30 uM
Method: as §2

SiHa [8] = test: cells; design: MTT assay, growth inhibition of cells relative to untreated control; details: Homo sapiens, SiHa; for inhibition at 10 µM: read-out: Growth inhibition (%) at 10 uM; for inhibition at 30 µM: read-out: Growth inhibition (%) at 30 uM
Method: as §2

estrogen receptor (ERα) = target: T1, estrogen receptor (ERα) (Homo sapiens, UniProt P03372); test: estrogen-responsive luciferase reporter assay in T47D-KBluc cells (agonism); type: cell-based
T1 construct: gene ESR1
T1 sequence (P03372 whole entry): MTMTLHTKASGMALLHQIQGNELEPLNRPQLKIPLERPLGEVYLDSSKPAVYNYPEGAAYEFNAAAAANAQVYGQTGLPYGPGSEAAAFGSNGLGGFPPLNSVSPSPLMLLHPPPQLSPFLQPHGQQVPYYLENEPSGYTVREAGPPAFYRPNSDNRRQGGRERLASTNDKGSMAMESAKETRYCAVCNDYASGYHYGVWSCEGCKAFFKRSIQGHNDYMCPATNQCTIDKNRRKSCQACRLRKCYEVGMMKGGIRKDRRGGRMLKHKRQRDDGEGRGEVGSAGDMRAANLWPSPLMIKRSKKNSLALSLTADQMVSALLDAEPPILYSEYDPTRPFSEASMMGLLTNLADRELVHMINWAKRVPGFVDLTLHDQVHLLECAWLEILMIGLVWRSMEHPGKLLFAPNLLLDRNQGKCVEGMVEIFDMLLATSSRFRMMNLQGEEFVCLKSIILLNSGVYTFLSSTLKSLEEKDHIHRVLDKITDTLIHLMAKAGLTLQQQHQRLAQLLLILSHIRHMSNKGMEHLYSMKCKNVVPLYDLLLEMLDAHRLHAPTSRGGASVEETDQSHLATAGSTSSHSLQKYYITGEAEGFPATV

SMILES | IC50 (HeLa [1]) [µM] | IC50 (MCF-7 [2]) [µM] | IC50 (MDA-MB-231 [3]) [µM] | IC50 (SiHa [4]) [µM] | CC50 (in vitro) [µM] | inhibition at 10 µM (HeLa [5]) [%] | inhibition at 30 µM (HeLa [5]) [%] | inhibition at 10 µM (MCF-7 [6]) [%] | inhibition at 30 µM (MCF-7 [6]) [%] | inhibition at 10 µM (MDA-MB-231 [7]) [%] | inhibition at 30 µM (MDA-MB-231 [7]) [%] | inhibition at 30 µM (NIH/3T3) [%] | inhibition at 10 µM (HeLa [1]) [%] | inhibition at 30 µM (HeLa [1]) [%] | inhibition at 10 µM (MCF-7 [2]) [%] | inhibition at 30 µM (MCF-7 [2]) [%] | inhibition at 10 µM (MDA-MB-231 [3]) [%] | inhibition at 30 µM (MDA-MB-231 [3]) [%] | inhibition at 10 µM (SiHa [4]) [%] | inhibition at 30 µM (SiHa [4]) [%] | also measured
C[C@]12CC[C@@H]3c4ccc(OCc5ccccc5)cc4CC[C@H]3[C@@H]1C[C@@H](CN=[N+]=[N-])C2=O [16AABE, 16α-azidomethyl-3-benzyloxyestra-1,3,5(10)-trien-17-on] | 5.01 | 3.13 | 4.72 | 4.1 | 13.6 | 93.22 ± 0.92 | 93.96 ± 0.23 | 91.73 ± 0.71 | 93.85 ± 0.22 | 93.53 ± 0.17 | 95.11 ± 0.31 | 98.29 ± 0.41 |  |  |  |  |  |  |  |  | inhibition at 10 µM (SiHa [8]): 90.1 ± 0.66%; inhibition at 30 µM (SiHa [8]): 91.48 ± 0.55%
C[C@]12CC[C@@H]3c4ccc(OCc5ccccc5)cc4CC[C@H]3[C@@H]1C[C@H](CN=[N+]=[N-])C2=O [16BABE, 16β-azidomethyl-3-benzyloxyestra-1,3,5(10)-trien-17-on] | 4.6 | 3.15 | 8.13 | 3.85 | 18.9 | 93.4 ± 0.13 | 94.33 ± 0.32 | 92.94 ± 0.37 | 93.79 ± 0.4 | 93.65 ± 0.24 | 95.03 ± 0.23 | 94.8 ± 1.63 |  |  |  |  |  |  |  |  | EC50 (estrogen receptor (ERα)): ~0.178 µM; inhibition at 10 µM (SiHa [8]): 90.73 ± 0.53%; inhibition at 30 µM (SiHa [8]): 91.08 ± 0.55%
C[C@]12CC[C@@H]3c4ccc(OCc5ccccc5)cc4CC[C@H]3[C@@H]1C[C@H](CN=[N+]=[N-])[C@@H]2O [compound 1, 1] |  |  |  |  |  |  |  |  |  |  |  |  | 33.97 ± 0.33 | 93.1 ± 0.21 | 38.8 ± 0.81 | 92.64 ± 0.22 | 34.07 ± 0.27 | 92.92 ± 0.09 | < 20 | 89.93 ± 0.2 | 
C[C@]12CC[C@@H]3c4ccc(OCc5ccccc5)cc4CC[C@H]3[C@@H]1C[C@H](CN=[N+]=[N-])[C@H]2O [compound 2, 2] |  |  |  |  |  |  |  |  |  |  |  |  | 29.1 ± 1.06 | 55.5 ± 2.06 | 20.2 ± 2.19 | 51.9 ± 1.85 | 45.1 ± 1.69 | 64.2 ± 1.39 |  | 43.2 ± 2.58 | 
C[C@]12CC[C@@H]3c4ccc(OCc5ccccc5)cc4CC[C@H]3[C@@H]1C[C@@H](CN=[N+]=[N-])[C@@H]2O [compound 3, 3] |  |  |  |  |  |  |  |  |  |  |  |  | 25 ± 2.26 | 93.35 ± 0.32 | 27.3 ± 1.28 | 92.55 ± 0.18 | 33.5 ± 2.92 | 89 ± 0.9 | < 20 | 86.46 ± 0.36 | 
C[C@]12CC[C@@H]3c4ccc(OCc5ccccc5)cc4CC[C@H]3[C@@H]1C[C@@H](CN=[N+]=[N-])[C@H]2O [compound 4, 4] |  |  |  |  |  |  |  |  |  |  |  |  | 26.6 ± 1.78 | 52.89 ± 0.49 | < 20 | 52.4 ± 2.5 | 25.1 ± 2.83 | 57.3 ± 0.98 | < 20 | 31.9 ± 0.69 | 
